Assay [1] deals with HepG2. Briefly: Cytotoxicity against human HepG2 cells assessed as surviving fraction ratio at 25 uM incubated for 2 hrs prior to 8Gy gamma-irradiation measured after 48 hrs by ELISA reader relative to control. In kind it is functional.
The test system of assay [2] is HepG2. Briefly: Cytotoxicity against human HepG2 cells assessed as surviving fraction ratio at 5 uM incubated for 2 hrs prior to 8Gy gamma-irradiation measured after 48 hrs by ELISA reader relative to control. In kind it is functional.
Assay [3] relates to HepG2. Put plainly: Cytotoxicity against human HepG2 cells assessed as surviving fraction ratio at 12.5 uM incubated for 2 hrs prior to 8Gy gamma-irradiation measured after 48 hrs by ELISA reader relative to control. In kind it is functional.
The subject of assay [4] is HepG2. Briefly: Cytotoxicity against human HepG2 cells assessed as surviving fraction ratio at 12.5 uM after 48 hrs by SRB assay relative to control. In kind it is functional.
In assay [5] the test system is HepG2. Put plainly: Cytotoxicity against human HepG2 cells assessed as surviving fraction ratio after 48 hrs by SRB assay relative to control. As to conditions: Homo sapiens, HepG2, 48 h; read-out: IC50. In kind it is functional, cell-based. (In general: Sulforhodamine B stains cellular protein and so reports cell mass.)
Assay [6] relates to HepG2. Briefly: Cytotoxicity against human HepG2 cells assessed as surviving fraction ratio incubated for 2 hrs prior to 8Gy gamma-irradiation measured after 48 hrs by ELISA reader relative to control. In kind it is functional, cell-based. As to conditions: HepG2, light or radiation study.
The subject of assay [7] is HepG2. Put plainly: Cytotoxicity against human HepG2 cells assessed as surviving fraction ratio at 25 uM after 48 hrs by SRB assay relative to control. In kind it is functional.
Assay [8] has as its system HepG2. Put plainly: Cytotoxicity against human HepG2 cells assessed as surviving fraction ratio at 50 uM incubated for 2 hrs prior to 8Gy gamma-irradiation measured after 48 hrs by ELISA reader relative to control. The class given is functional.
Assay [9] has as its system HepG2. Put plainly: Cytotoxicity against human HepG2 cells assessed as surviving fraction ratio at 50 uM after 48 hrs by SRB assay relative to control. The class given is functional.
Assay [10] concerns HepG2. Briefly: Cytotoxicity against human HepG2 cells assessed as surviving fraction ratio at 5 uM after 48 hrs by SRB assay relative to control. The class given is functional.

One may read the IC50 as the concentration that inhibits the measured activity by half. On to `Cc1ccc(S(=O)(=O)Nc2ccc(C(=O)/C=C/c3ccc(Br)cc3)cc2)cc1`, for which the Ratio in the assay with HepG2 [1] is 0.394; in the assay with HepG2 [2], 0.591; in the assay with HepG2 [3] it was 0.471; in the assay with HepG2 [4] it was 0.505; in the assay on HepG2 [7] it was 0.43; in the assay with HepG2 [8] it was 0.408. For the same compound, the Ratio with HepG2 [9] is on record as 0.445; in the assay with HepG2 [10] it was 0.584. Also, the IC50 stood at 30.3 µM in the assay on HepG2 [5] and 26.8 µM in the assay with HepG2 [6].

The record behind these values is ChEMBL document CHEMBL3407449, “Synthesis, anticancer and radiosensitizing evaluation of some novel sulfonamide derivatives” (Eur J Med Chem, 2015).
